Residue numbers refer to the chain shown, from its start.
What was measured:
GlyT2 T512A mutant = target: T1, GlyT2 T512A mutant (Homo sapiens, UniProt Q9Y345, T512A); assay: Inhibitor washout time course (reversibility); type: cell-based; parameters: expressed in transfected cells; host or cells: Xenopus laevis oocytes injected with mutant RNA (pOTV vector); settings: for Recovery at 30 Min / Half-life (transport current recovery): washout after 4 min IC50 concentration
T1 sequence (Q9Y345 1-797 T512A): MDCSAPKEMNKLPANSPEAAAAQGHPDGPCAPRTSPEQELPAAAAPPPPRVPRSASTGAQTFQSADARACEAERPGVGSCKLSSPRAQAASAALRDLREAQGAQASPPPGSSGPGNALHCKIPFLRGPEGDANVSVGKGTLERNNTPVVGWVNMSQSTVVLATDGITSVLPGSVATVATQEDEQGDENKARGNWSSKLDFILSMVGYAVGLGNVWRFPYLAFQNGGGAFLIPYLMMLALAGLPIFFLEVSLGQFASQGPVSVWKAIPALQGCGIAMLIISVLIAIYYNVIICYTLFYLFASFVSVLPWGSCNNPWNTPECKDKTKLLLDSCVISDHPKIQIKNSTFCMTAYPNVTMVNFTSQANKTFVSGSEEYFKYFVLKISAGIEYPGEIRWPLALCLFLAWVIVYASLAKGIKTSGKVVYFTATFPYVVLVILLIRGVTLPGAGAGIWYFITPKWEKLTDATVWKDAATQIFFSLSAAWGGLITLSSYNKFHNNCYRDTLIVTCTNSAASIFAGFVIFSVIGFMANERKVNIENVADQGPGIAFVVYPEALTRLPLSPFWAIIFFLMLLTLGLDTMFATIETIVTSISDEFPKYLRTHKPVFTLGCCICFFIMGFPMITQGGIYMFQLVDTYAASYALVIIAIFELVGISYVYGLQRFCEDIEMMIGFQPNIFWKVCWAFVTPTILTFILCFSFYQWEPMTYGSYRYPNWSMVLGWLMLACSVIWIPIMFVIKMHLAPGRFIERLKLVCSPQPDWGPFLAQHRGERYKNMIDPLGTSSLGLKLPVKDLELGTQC
Method: (§1) Reversibility of GlyT2 inhibitors was determined by applying an EC50 concentration of glycine followed by co-application of the inhibitor at an IC50 concentration once a stable current had been achieved. Inhibitors were applied for 4 min as this was sufficient time to produce substantial inhibition for each compound and allowed for their direct comparison. At the conclusion of 4 min (time 0), ND96 buffer was perfused through the recording chamber to wash the oocyte. […] Transport currents were normalized to glycine currents in the absence of inhibitor and converted to % recovery values via Y=It−It=0/Imax−It=0, where Y is % recovery, I is current in nA, Imax is the maximal current produced by the glycine EC50, and t is time in minutes. Washout kinetics were then determined by fitting % recovery values to the first-order rate equation: Y=(Y0−Plateau).e^(−Kt)+Plateau, where Y is the % recovery, Y0 is the point, which crosses the Y-axis (constrained to 0) and increases to the plateau (constrained to between 0 and 100), K is the rate constant (1/t), and t is time in minutes. […] Because of the slowly […] nature of the inhibitors, washout time courses involving cyclodextrin treatment could not be performed on the same cell. […] As these experiments could not occur on the same cell, differences in half-life and maximal recovery were analysed via an unpaired two-tailed t test.

GlyT2 Y430L mutant = target: T2, GlyT2 Y430L mutant (Homo sapiens, UniProt Q9Y345, Y430L); assay: Inhibitor washout time course (reversibility); type: cell-based; parameters: expressed in transfected cells; host or cells: Xenopus laevis oocytes injected with mutant RNA (pOTV vector)
T2 sequence (Q9Y345 1-797 Y430L): T1 sequence (Q9Y345 1-797 T512A) with Y430L, A512T
Method: as §1

[1] = washout after 4 min IC50 concentration

Increase of recovery after 30 min compared to WT (GlyT2 T512A mutant; T512A vs WT) | Recovery at 30 Min (GlyT2 T512A mutant; T512A) | Recovery at 30 Min (GlyT2 Y430L mutant; [1]) | Increase in recovery of current 30 min after application, vs WT (GlyT2 T512A mutant; T512A) | Half-life (transport current recovery) (GlyT2 T512A mutant; T512A) | Increase in recovery of current 30 min after application, vs WT (GlyT2 Y430L mutant) | Half-life (transport current recovery) (GlyT2 Y430L mutant; [1]) | SMILES
1.8 fold | 79.4% | 80.6% |  |  |  |  | CCCCCCCC/C=C\CCCCCCCC(=O)O[C@H](CC(=O)[O-])C[N+](C)(C)C [Oleoyl-L-Carnitine, oleoyl-L-carnitine]
 | 76.2 ± 4.1 % | 67.9 ± 2.3 % | 25.1% | 1.7 ± 0.3 min | 16.8% |  | CCCCCCCC/C=C\CCCCCCCC(=O)N[C@@H](CC(C)C)C(=O)O [Oleoyl-L-Leucine, oleoyl-L-leucine]
 | 63.5 ± 2.0% | 72.5 ± 2.1 % |  |  | 17.4% |  | CCCCCCCC/C=C\CCCCCCCC(=O)N[C@@H](CCCCN)C(=O)O [Oleoyl-L-Lysine, oleoyl-L-lysine]
 | No Recovery | No Recovery |  | No Recovery |  | No Recovery | CCCCCCCC/C=C\CCCCCCCC(=O)N[C@@H](Cc1c[nH]c2ccccc12)C(=O)O [Oleoyl-L-Tryptophan, oleoyl-L-tryptophan]

Reference: article PMC9873984, “Membrane cholesterol regulates inhibition and substrate transport by the glycine transporter, GlyT2” (Life Science Alliance, 2023)
